The values below come from ChEMBL document CHEMBL3714729, “Heterocyclic compounds for the inhibition of pask” (2012).

SMILES strings stand for the structures.

Experiment [1] deals with T1, PAS domain-containing serine/threonine-protein kinase (Homo sapiens, UniProt Q96RG2). In words: Inhibition of human recombinant PASK using Ulight-peptide substrate incubated for 2 hrs by TR-FRET assay. (TR-FRET usually uses a lanthanide donor and a delayed reading to cut background.)
In experiment [2] the target is T1, PAS domain-containing serine/threonine-protein kinase. Kind of experiment: Inhibition of N-terminal GST-tagged human recombinant PASK kinase domain (879 to 1323 residues) expressed in insect cells using MBP protein substrate incubated for 120 mins in presence of [33P]ATP by scintillation counting based radiochemical assay.
The target in experiment [3] is Casein kinase II subunit alpha' (Homo sapiens, UniProt P19784). Kind of experiment: Inhibition of GST-tagged full-length purified human CK2a2 using RRRDDDSDDD substrate incubated for 120 mins in presence of [33P]ATP by scintillation counting based biochemical assay.
Casein kinase II subunit alpha', sequence (P19784 whole entry): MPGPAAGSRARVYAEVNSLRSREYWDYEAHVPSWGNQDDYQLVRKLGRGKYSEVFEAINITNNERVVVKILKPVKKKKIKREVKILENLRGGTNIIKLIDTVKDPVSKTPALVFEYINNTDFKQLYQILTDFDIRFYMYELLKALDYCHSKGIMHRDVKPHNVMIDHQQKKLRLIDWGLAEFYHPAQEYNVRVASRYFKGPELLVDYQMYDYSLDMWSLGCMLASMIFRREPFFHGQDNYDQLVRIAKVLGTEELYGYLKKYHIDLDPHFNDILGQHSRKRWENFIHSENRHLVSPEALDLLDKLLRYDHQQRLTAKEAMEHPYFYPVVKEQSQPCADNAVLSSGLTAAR

T1 sequence (Q96RG2 whole entry, the tested form may be a part): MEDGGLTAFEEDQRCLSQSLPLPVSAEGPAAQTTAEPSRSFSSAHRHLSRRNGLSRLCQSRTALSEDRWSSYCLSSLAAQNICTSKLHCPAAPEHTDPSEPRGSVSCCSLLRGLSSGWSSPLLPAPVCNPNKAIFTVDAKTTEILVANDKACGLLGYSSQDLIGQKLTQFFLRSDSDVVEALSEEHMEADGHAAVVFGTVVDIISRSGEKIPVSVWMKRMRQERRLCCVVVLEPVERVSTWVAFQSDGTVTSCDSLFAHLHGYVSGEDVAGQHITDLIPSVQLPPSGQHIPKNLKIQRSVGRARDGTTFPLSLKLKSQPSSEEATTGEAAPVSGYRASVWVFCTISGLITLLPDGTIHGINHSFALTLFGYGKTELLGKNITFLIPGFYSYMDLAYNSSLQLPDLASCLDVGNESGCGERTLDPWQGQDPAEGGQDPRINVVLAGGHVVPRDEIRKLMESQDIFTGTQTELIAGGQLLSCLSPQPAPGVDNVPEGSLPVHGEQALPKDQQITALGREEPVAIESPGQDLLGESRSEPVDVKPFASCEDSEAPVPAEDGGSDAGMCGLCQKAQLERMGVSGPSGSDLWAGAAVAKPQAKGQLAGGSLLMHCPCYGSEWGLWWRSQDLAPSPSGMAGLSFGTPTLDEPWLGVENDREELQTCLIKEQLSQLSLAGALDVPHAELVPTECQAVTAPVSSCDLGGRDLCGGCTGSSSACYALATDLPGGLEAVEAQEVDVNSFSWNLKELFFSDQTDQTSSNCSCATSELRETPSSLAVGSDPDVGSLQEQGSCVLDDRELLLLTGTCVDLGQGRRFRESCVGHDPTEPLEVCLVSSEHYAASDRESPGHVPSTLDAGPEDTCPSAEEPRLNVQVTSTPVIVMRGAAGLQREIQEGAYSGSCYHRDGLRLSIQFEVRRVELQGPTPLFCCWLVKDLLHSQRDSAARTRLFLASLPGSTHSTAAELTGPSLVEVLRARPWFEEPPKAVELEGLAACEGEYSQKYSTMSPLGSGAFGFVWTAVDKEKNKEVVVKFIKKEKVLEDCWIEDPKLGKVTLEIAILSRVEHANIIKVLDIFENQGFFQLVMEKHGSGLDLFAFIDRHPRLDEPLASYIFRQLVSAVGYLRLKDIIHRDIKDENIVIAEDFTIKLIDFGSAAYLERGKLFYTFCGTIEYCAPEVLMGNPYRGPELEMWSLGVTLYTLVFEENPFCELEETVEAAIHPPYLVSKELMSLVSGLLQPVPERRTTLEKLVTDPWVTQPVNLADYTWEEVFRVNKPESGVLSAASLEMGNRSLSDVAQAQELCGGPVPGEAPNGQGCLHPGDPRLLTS

As to `COc1cc2[nH]nnc2cc1-c1cc(=O)n2nc(O)c(-c3ccccn3)c2[nH]1`, the IC50 in experiment [1] is ≤ 10 µM.

For the compound `O=c1cc(-c2ccc3c(c2)OCCO3)[nH]c2c(-c3ccccc3)c(O)nn12`, the IC50 in experiment [1] and in experiment [2] was ≤ 10 µM each time. For `CCC(=O)Nc1nn2c(=O)cc(-c3ccc4c(c3)OCO4)[nH]c2c1-c1ccccn1`, the IC50 in experiment [1] is ≤ 10 µM. For the compound `Cc1nn2c(=O)cc(-c3ccc4c(c3)OCCO4)[nH]c2c1-c1ccccn1`, in experiment [3], the IC50 is ≤ 10 µM. In the case of `CNC(=O)Oc1ccc(-c2cc(=O)n3nc(C)c(-c4ccccn4)c3[nH]2)cc1`, in experiment [1], the IC50 is ≤ 10 µM. Still for that read-out and setting: the result for `COc1c(-c2cc(=O)n3nc(O)c(-c4ccccn4)c3[nH]2)ccc2[nH]nnc12` reads ≤ 10 µM. In the case of `O=c1cc(-c2ccc3c(c2)OCCO3)[nH]c2c(-c3cccnc3)cnn12`, the IC50 in experiment [3] is ≤ 10 µM. On to `O=c1cc(-c2ccc3[nH]nnc3c2)[nH]c2c(-c3ccccc3)c(O)nn12`, for which the IC50 in experiment [1] is ≤ 10 µM. On to `COc1ccc(-c2cc(=O)n3nc(C)c(Cc4ccccc4)c3[nH]2)cc1OC`, for which the IC50 in experiment [3] was ≥ 10 µM. Take `Cc1nn2c(=O)cc(-c3ccc4[nH]nnc4c3)[nH]c2c1-c1ccccn1`: the IC50 in experiment [1] is ≤ 10 µM.

Consider `CCc1nn2c(=O)cc(-c3ccc(Cl)cc3)[nH]c2c1-c1ccccn1`, for which the IC50 in experiment [1] is ≤ 10 µM. Turning to `Nc1nn2c(=O)cc(-c3ccc(F)cc3F)[nH]c2c1-c1ccccn1`, in experiment [1], the IC50 was ≤ 10 µM. On the same count and under the same terms, the result for `Cc1n[nH]c2ccc(-c3cc(=O)n4nc(N)c(-c5ccccn5)c4[nH]3)cc12` reads ≤ 10 µM. The same measure, in the same setting: the result for `O=c1cc(-c2ccc3[nH]nnc3c2)[nH]c2c(Cc3ccccc3)c(O)nn12` reads ≤ 10 µM; that for `Cc1nn2c(=O)cc(-c3ccc4c(c3OC(C)C)OCO4)[nH]c2c1-c1ccccn1`, ≤ 10 µM; that for `CNC(=O)Oc1ccc(-c2cc(=O)n3ncc(-c4ccccn4)c3[nH]2)cc1`, ≤ 10 µM.

Take `Cc1c(-c2cc(=O)n3nc(O)c(-c4ccccn4)c3[nH]2)ccc2c1OCO2`: the IC50 in experiment [1] is ≤ 10 µM. For `CCc1nn2c(=O)cc(-c3ccc4c(cnn4C)c3)[nH]c2c1-c1ccccn1`, the IC50 in experiment [1] is ≤ 10 µM. Take `COc1cccc(-c2cc(=O)n3nc(C)c(Cc4ccc(Cl)cc4)c3[nH]2)c1`: in experiment [3], the IC50 is ≥ 10 µM. For `CCc1nn2c(=O)cc(-c3ccc4[nH]nnc4c3)[nH]c2c1-c1ccccc1`, the IC50 in experiment [1] is ≤ 10 µM. As for `Cn1ncc2cc(-c3cc(=O)n4ncc(-c5ccccn5)c4[nH]3)ccc21`, in experiment [1], the IC50 was ≤ 10 µM. The same measure, in the same setting: the result for `COc1c(-c2cc(=O)n3nc(C)c(-c4ccccn4)c3[nH]2)ccc2[nH]nnc12` reads ≤ 10 µM; that for `CCn1ncc2cc(-c3cc(=O)n4nc(NC(C)=O)c(-c5ccccn5)c4[nH]3)ccc21`, ≤ 10 µM; that for `Cc1c(-c2cc(=O)n3nc(N)c(-c4ccccn4)c3[nH]2)ccc2[nH]nnc12`, ≤ 10 µM. Regarding `O=c1cc(-c2ccc3[nH]nnc3c2)[nH]c2c(-c3ccccn3)cnn12`, in experiment [1], the IC50 was ≤ 10 µM.

Take `CCC(=O)Nc1nn2c(=O)cc(-c3ccc4nn[nH]c4c3)[nH]c2c1-c1ccccn1`: in experiment [1], the IC50 was ≤ 10 µM. For `O=c1cc(-c2ccc3c(c2)OCCO3)[nH]c2c(-c3cccc(F)c3)cnn12`, the IC50 in experiment [3] and in experiment [1] was ≤ 10 µM each time. For `O=c1cc(-c2ccc3c(c2)OCCO3)[nH]c2c(-c3ccc(N4CCCCC4)nc3)cnn12`, the IC50 in experiment [3] and in experiment [1] was ≤ 10 µM throughout.

For `Cc1c(-c2cc(=O)n3nc(O)c(-c4ccccn4)c3[nH]2)ccc2[nH]nnc12`, the IC50 in experiment [1] is ≤ 10 µM. Same read-out and setting: the result for `Cc1nn2c(=O)cc(-c3ccc4[nH]nnc4c3)[nH]c2c1Cc1ccccc1` reads ≤ 10 µM.

On to `Cc1cc2[nH]nnc2cc1-c1cc(=O)n2ncc(-c3ccccn3)c2[nH]1`, for which the IC50 in experiment [1] is ≤ 10 µM.

As for `COc1ccc(-c2cc(=O)n3ncc(-c4ccccn4)c3[nH]2)cc1`, the IC50 in experiment [3] is ≤ 10 µM.

`O=C(NCc1ccccc1)c1cnn2c(=O)cc(-c3ccc4c(c3)OCCO4)[nH]c12`: the IC50 in experiment [1] and in experiment [2] was ≤ 10 µM throughout. In the case of `CN1CCN(C(=O)c2cnn3c(=O)cc(-c4ccc5c(c4)OCCO5)[nH]c23)CC1`, the IC50 in experiment [1] and in experiment [2] was ≤ 10 µM in each case.

For the compound `Cc1nn2c(=O)cc(-c3ccc4[nH]nnc4c3)[nH]c2c1-c1ccc(Cl)cc1`, the IC50 in experiment [1] was ≤ 10 µM.

`Cc1nn2c(=O)cc(-c3ccc4[nH]nnc4c3)[nH]c2c1-c1ccccc1`: in experiment [1], the IC50 is ≤ 10 µM.

`O=c1cc(-c2ccc3c(c2)OCCO3)[nH]c2c(-c3ccccc3)cnn12`: the IC50 in experiment [3] is ≤ 10 µM. Still for that read-out and setting: the result for `O=c1cc(-c2ccc3c(c2)OCO3)[nH]c2c(-c3ccccn3)cnn12` reads ≤ 10 µM. With `Cc1cc2[nH]nnc2cc1-c1cc(=O)n2nc(N)c(-c3ccccn3)c2[nH]1`, in experiment [1], the IC50 is ≤ 10 µM. As for `Cc1c(-c2cc(=O)n3nc(N)c(-c4ccccn4)c3[nH]2)ccc2c1OCO2`, the IC50 in experiment [1] is ≤ 10 µM. In the case of `O=c1cc(-c2ccc3c(c2)OCO3)[nH]c2c(Cc3ccccn3)cnn12`, the IC50 in experiment [1] is ≤ 10 µM. Consider `Nc1nn2c(=O)cc(-c3ccc4[nH]nnc4c3)[nH]c2c1Cc1ccccc1`, for which the IC50 in experiment [1] was ≤ 10 µM. On to `CC(C)Oc1c(-c2cc(=O)n3ncc(-c4ccccn4)c3[nH]2)ccc2c1OCO2`, for which, in experiment [1], the 50% inhibitory concentration (IC50) is ≤ 10 µM. Regarding `Cc1cc2[nH]nnc2cc1-c1cc(=O)n2nc(O)c(-c3ccccn3)c2[nH]1`, the IC50 in experiment [1] was ≤ 10 µM. For `Cc1nn2c(=O)cc(-c3ccccc3)[nH]c2c1Cc1ccc(Cl)cc1`, in experiment [3], the IC50 is ≤ 10 µM. As for `O=c1cc(-c2ccc3c(c2)OCCO3)[nH]c2c(-c3ccccn3)c(O)nn12`, the IC50 in experiment [1] and in experiment [2] was ≤ 10 µM each time. As for `COc1ccc(-c2cc(=O)n3ncc(-c4ccc(F)cc4)c3[nH]2)cc1`, in experiment [3], the IC50 is ≤ 10 µM. As to `Cc1nn2c(=O)cc(-c3ccc4cc[nH]c4c3)[nH]c2c1Cc1ccccc1`, the IC50 in experiment [3] is ≥ 10 µM. Regarding `COc1ccc(-c2cc(=O)n3ncc(-c4ccccn4)c3[nH]2)c(OC)c1`, the IC50 in experiment [1] and in experiment [2] was ≤ 10 µM throughout. For the compound `Cc1nn2c(=O)cc(-c3ccc(OC(C)C)cc3)[nH]c2c1Cc1ccc(Cl)cc1`, in experiment [3], the concentration for half-maximal inhibition (IC50) is ≥ 10 µM.

Consider `Cc1nn2c(=O)cc(-c3ccc(C(F)(F)F)cc3)[nH]c2c1Cc1ccc(Cl)cc1`, for which, in experiment [3], the IC50 is ≥ 10 µM.

`Cc1nn2c(=O)cc(-c3ccc4c(c3)CCO4)[nH]c2c1-c1ccccc1`: the IC50 in experiment [3] was ≤ 10 µM. With `Cc1nn2c(=O)cc(-c3ccc4c(c3)OCCO4)[nH]c2c1-c1cccnc1`, the IC50 in experiment [3] was ≤ 10 µM. Still for that read-out and setting: the result for `Cc1nn2c(=O)cc(-c3ccc4c(c3)OCO4)[nH]c2c1-c1ccccc1` reads ≤ 10 µM. Consider `O=c1cc(-c2cccc(F)c2)[nH]c2c(-c3ccccn3)cnn12`, for which the IC50 in experiment [1] is ≤ 10 µM.

Take `O=c1cc(-c2ccc3c(c2)OCCO3)[nH]c2c(-c3ccccn3)cnn12`: in experiment [3], the IC50 is ≤ 10 µM. For the compound `O=c1cc(-c2ccc(F)cc2F)[nH]c2c(-c3ccccn3)cnn12`, the IC50 in experiment [1] is ≤ 10 µM. As for `Cn1ncc2cc(-c3cc(=O)n4nc(N)c(-c5ccccn5)c4[nH]3)ccc21`, the IC50 in experiment [1] is ≤ 10 µM. `Nc1nn2c(c1-c1ccccn1)CC(c1ccc3c(c1)OC(F)(F)O3)=CC2=O`: in experiment [1], the half-inhibitory concentration (IC50) was ≤ 10 µM. For `O=c1cc(-c2ccc(Cl)cc2)[nH]c2c(-c3ccccn3)cnn12`, the IC50 in experiment [1] and in experiment [2] was ≤ 10 µM in each case. Consider `Cc1nn2c(=O)cc(-c3ccc4c(c3C)OCO4)[nH]c2c1-c1ccccn1`, for which the half-inhibitory concentration (IC50) in experiment [1] was ≤ 10 µM. For the compound `COc1ccc(-c2cc(=O)n3nc(C)c(Cc4ccc(Cl)cc4)c3[nH]2)cc1OC`, the IC50 in experiment [3] was ≥ 10 µM.

Take `O=C(c1cnn2c(=O)cc(-c3ccc4c(c3)OCCO4)[nH]c12)N1CCOCC1`: the IC50 in experiment [1] and in experiment [2] was ≤ 10 µM throughout.

On to `COc1c(-c2cc(=O)n3ncc(-c4ccccn4)c3[nH]2)ccc2c1OCO2`, for which the IC50 in experiment [1] is ≤ 10 µM.

Turning to `Cn1nnc2cc(-c3cc(=O)n4nc(N)c(-c5ccccn5)c4[nH]3)ccc21`, in experiment [1], the IC50 was ≤ 10 µM. Turning to `COC(=O)c1ccc(-c2cc(=O)n3nc(C)c(Cc4ccc(Cl)cc4)c3[nH]2)cc1`, in experiment [3], the IC50 was ≥ 10 µM.

Regarding `COc1c(-c2cc(=O)n3nc(N)c(-c4ccccn4)c3[nH]2)ccc2[nH]nnc12`, the IC50 in experiment [1] is ≤ 10 µM.

Regarding `CCCNC(=O)c1c(N)nn2c(=O)cc(-c3ccc4c(c3)OCO4)[nH]c12`, the IC50 in experiment [1] was ≤ 10 µM. For `Cc1nn2c(=O)cc(-c3ccc4[nH]nnc4c3C)[nH]c2c1-c1ccccn1`, the IC50 in experiment [1] is ≤ 10 µM.

`COc1ccc(-c2cc(=O)n3nc(C)c(Cc4ccccc4Cl)c3[nH]2)cc1`: the 50% inhibitory concentration (IC50) in experiment [3] is ≥ 10 µM; in experiment [1], ≤ 10 µM. Regarding `CC(=O)Nc1nn2c(=O)cc(-c3ccc4[nH]nnc4c3)[nH]c2c1-c1ccccn1`, in experiment [1], the IC50 is ≤ 10 µM. On to `CCc1nn2c(=O)cc(-c3ccc4[nH]ncc4c3)[nH]c2c1-c1ccccn1`, for which, in experiment [1], the IC50 is ≤ 10 µM. With `O=c1cc(-c2ccc3[nH]nnc3c2)[nH]c2c(Cc3ccccc3)cnn12`, in experiment [1], the concentration for half-maximal inhibition (IC50) was ≤ 10 µM. The same measure, in the same setting: the result for `CCCNC(=O)c1c(O)nn2c(=O)cc(-c3ccc4[nH]nnc4c3)[nH]c12` reads ≤ 10 µM. Take `Cc1nn2c(=O)cc(-c3ccc4c(c3)OCO4)[nH]c2c1-c1ccccn1`: in experiment [3], the IC50 is ≤ 10 µM. Take `Cc1nn2c(=O)cc(-c3ccc(C(N)=O)cc3)[nH]c2c1Cc1ccc(Cl)cc1`: the IC50 in experiment [3] was ≥ 10 µM. For the compound `CCCNC(=O)c1c(N)nn2c(=O)cc(-c3ccc4c(c3)OCCO4)[nH]c12`, the IC50 in experiment [1] was ≤ 10 µM.

As to `O=c1cc(-c2ccc(-c3nnco3)cc2)[nH]c2c(-c3ccccn3)cnn12`, in experiment [1], the IC50 was ≤ 10 µM. For `Cc1c(-c2cc(=O)n3ncc(-c4ccccn4)c3[nH]2)ccc2c1OCO2`, the IC50 in experiment [1] is ≤ 10 µM. For `CC(=O)Nc1nn2c(=O)cc(-c3ccc4[nH]ncc4c3)[nH]c2c1-c1ccccn1`, the IC50 in experiment [1] was ≤ 10 µM.

As to `Cc1n[nH]c2ccc(-c3cc(=O)n4ncc(-c5ccccn5)c4[nH]3)cc12`, in experiment [1], the IC50 was ≤ 10 µM.

For `CC(C)C(=O)Nc1nn2c(=O)cc(-c3ccc4c(c3)OCO4)[nH]c2c1-c1ccccn1`, the IC50 in experiment [1] is ≤ 10 µM. In the case of `Cc1nn2c(=O)cc(-c3ccccc3)[nH]c2c1Cc1ccccc1`, in experiment [3], the IC50 is ≥ 10 µM. With `Cn1nnc2cc(-c3cc(=O)n4ncc(-c5ccccn5)c4[nH]3)ccc21`, the IC50 in experiment [1] was ≤ 10 µM.

Broadly, the IC50 is the concentration at which inhibition is half-maximal.
